Test results reported in patent US9434734B2, “Substituted pyrazoloquinazolinones and pyrroloquinazolinones as allosteric modulators of group II metabotropic glutamate receptors” (Domain Therapeutics, priority 2012, dated 2016).
pIC50: −log10 of the molar value. Read-outs that look alike come from different tables or passages of the source.

Experiments:
[1] = target: T1, human mGluR2 (hmGluR2) transiently over-expressed in HEK-293 cells (Homo sapiens, UniProt Q14416); test: Human mGluR2 negative allosteric modulator evaluation using Ca++ functional assay (agonist and NAM activity); assay type: cell-based
T1 construct: expressed in transfected cells; host or cells: HEK-293 cells, transient co-transfection by electroporation
T1 sequence (Q14416 19-872): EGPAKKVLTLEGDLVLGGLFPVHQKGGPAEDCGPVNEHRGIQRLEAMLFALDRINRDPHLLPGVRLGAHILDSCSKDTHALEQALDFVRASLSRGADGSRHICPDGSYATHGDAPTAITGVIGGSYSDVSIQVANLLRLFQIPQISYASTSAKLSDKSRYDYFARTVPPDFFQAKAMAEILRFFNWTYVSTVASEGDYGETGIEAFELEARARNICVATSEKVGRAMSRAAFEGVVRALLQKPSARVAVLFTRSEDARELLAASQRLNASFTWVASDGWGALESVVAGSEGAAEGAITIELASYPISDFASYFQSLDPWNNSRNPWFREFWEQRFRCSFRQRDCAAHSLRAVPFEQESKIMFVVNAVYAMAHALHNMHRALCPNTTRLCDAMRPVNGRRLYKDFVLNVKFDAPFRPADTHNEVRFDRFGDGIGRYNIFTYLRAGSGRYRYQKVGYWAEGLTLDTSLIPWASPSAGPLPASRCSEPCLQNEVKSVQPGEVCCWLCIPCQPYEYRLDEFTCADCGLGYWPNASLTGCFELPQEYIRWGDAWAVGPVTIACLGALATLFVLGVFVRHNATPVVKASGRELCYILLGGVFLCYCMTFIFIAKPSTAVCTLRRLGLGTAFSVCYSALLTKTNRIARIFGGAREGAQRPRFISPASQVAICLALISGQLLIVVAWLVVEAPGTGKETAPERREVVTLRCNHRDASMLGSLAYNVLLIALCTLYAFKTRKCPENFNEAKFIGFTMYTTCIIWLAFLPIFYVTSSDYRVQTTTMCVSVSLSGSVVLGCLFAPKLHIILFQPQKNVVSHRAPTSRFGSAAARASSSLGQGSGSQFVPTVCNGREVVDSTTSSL
How it was run: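 Compound alone (agonist mode) was followed on the same plate by EC80 glutamate (NAM mode), with fluorescence read 60 s. Eight-point curves, variable-slope fit, duplicate, two independent runs.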

human mGluR3 (hmGluR3) = human mGluR3 (hmGluR3) (Homo sapiens, UniProt Q14832); test: mGluR3 negative allosteric modulator activity; assay type: cell-based
human mGluR3 (hmGluR3), sequence (Q14832 23-879): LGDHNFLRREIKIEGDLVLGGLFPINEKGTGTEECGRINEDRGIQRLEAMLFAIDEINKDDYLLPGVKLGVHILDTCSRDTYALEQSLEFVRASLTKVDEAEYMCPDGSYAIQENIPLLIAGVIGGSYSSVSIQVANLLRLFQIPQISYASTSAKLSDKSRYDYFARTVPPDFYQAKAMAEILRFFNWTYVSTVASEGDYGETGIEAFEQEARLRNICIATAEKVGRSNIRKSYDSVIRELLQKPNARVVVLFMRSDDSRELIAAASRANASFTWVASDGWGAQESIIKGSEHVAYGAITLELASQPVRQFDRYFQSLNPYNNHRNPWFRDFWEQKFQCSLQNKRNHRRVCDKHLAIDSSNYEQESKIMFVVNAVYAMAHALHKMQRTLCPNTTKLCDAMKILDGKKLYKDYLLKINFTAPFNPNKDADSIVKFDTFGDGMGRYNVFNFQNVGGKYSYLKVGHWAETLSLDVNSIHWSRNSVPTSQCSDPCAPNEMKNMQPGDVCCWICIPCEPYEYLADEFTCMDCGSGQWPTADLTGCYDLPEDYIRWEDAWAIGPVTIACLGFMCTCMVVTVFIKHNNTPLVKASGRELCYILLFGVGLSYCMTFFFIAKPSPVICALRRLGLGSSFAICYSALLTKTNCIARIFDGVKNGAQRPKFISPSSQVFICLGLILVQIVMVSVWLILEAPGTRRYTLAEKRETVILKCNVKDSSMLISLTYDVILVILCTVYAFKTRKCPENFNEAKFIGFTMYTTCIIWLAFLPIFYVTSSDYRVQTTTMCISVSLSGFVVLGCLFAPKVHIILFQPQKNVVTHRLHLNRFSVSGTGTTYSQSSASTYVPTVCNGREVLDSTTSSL

[2] = hmGluR2 in HEK-293 cells, EC80 glutamate, Fluo4AM calcium readout, read-out: mGluR2 negative allosteric modulator activity IC50

SMILES	pIC50 [1, 2]	pIC50 (human mGluR3 (hmGluR3))	melting point [°C]	pIC50 ([1]; N-methylated compounds, statement in description, read-out: IC50 for mGluR2)
Cn1c(=O)c2ccc(-c3cccc(C(=O)O)c3)cc2n2nc(-c3ccccc3)cc12 [Example 34, 3-(4-Methyl-5-oxo-2-phenyl-4,5-dihydro-pyrazolo[1,5-a]quinazolin-8-yl)-benzoic Acid]	> 6.00	> 6.00	> 250	–
CCn1c(=O)c2ccc(-c3ccc(N)nc3)cc2n2nc(C3CCCC3)cc12.Cl [Example 69, 8-(6-Amino-pyridin-3-yl)-2-cyclopentyl-4-ethyl-4H-pyrazolo[1,5-a]quinazolin-5-one]	> 6.00	> 6.00	> 250	–
Cn1c(=O)c2ccc(-c3cc[nH]n3)cc2n2nc(-c3ccccc3)cc12 [Example 17, 4-Methyl-2-phenyl-8-(1H-pyrazol-3-yl)-4H-pyrazolo[1,5-a]quinazolin-5-one]	> 6.00	–	245 to 249	–
Cn1cc(-c2cc3n(C)c(=O)c4ccc(-c5ccccc5)cc4n3n2)cn1 [Example 124, 4-Methyl-2-(1-methyl-1H-pyrazol-4-yl)-8-phenyl-4H-pyrazolo[1,5-a]quinazolin-5-one]	> 6.00	–	228 to 231	–
CN(C)S(=O)(=O)c1cccc(-c2ccc3c(=O)n(CC4CC4)c4cc(-c5ccccc5)nn4c3c2)c1 [Example 42, 3-(4-Cyclopropylmethyl-5-oxo-2-phenyl-4,5-dihydro-pyrazolo[1,5-a]quinazolin-8-yl)-N,N-dimethyl-benzenesulfonamide]	> 6.00	–	115 to 119	–
CCCn1c(=O)c2ccc(-c3ccc(N)nc3)cc2n2nc(C3CCCC3)cc12.Cl [Example 71, 8-(6-Amino-pyridin-3-yl)-2-cyclopentyl-4-propyl-4H-pyrazolo[1,5-a]quinazolin-5-one]	> 6.00	–	> 250	–
Cn1c(=O)c2ccc(-c3ccc4nccn4c3)cc2n2nc(-c3ccccc3)cc12 [Example 8, 8-Imidazo[1,2-a]pyridin-6-yl-4-methyl-2-phenyl-4H-pyrazolo[1,5-a]quinazolin-5-one]	> 6.00	–	> 250	–
Cc1cc(-c2ccc3c(=O)n(CC(F)F)c4cc(C5CCOCC5)nn4c3c2)cc(C)n1.Cl [Example 102, 4-(2,2-Difluoro-ethyl)-8-(2,6-dimethyl-pyridin-4-yl)-2-(tetrahydro-pyran-4-yl)-4H-pyrazolo[1,5-a]quinazolin-5-one]	> 6.00	–	> 250	–
Cl.Cn1c(=O)c2ccc(-c3ccc(N)nc3)cc2n2nc(Cc3ccccc3)cc12 [Example 79, 8-(6-Amino-pyridin-3-yl)-2-benzyl-4-methyl-4H-pyrazolo[1,5-a]quinazolin-5-one]	> 6.00	–	> 250	–
Cl.Cn1cc(-c2cc3n(C)c(=O)c4ccc(-c5cccnc5)cc4n3n2)cn1 [Example 126, 4-Methyl-2-(1-methyl-1H-pyrazol-4-yl)-8-pyridin-3-yl-4H-pyrazolo[1,5-a]quinazolin-5-one]	> 6.00	–	> 250	–
Cc1ccc(-c2ccc3c(=O)n(C)c4cc(-c5ccnc(C(F)(F)F)c5)nn4c3c2)c(C)n1.Cl [Example 143, 8-(2,6-Dimethyl-pyridin-3-yl)-4-methyl-2-(2-trifluoromethyl-pyridin-4-yl)-4H-pyrazolo[1,5-a]quinazolin-5-one]	> 6.00	–	> 250	–
CCCn1c(=O)c2ccc(-c3cccc(S(=O)(=O)N(C)C)c3)cc2n2nc(-c3ccccc3)cc12 [Example 40, N,N-Dimethyl-3-(4-propyl-5-oxo-2-phenyl-4,5-dihydro-pyrazolo[1,5-a]quinazolin-8-yl)-benzenesulfonamide]	> 6.00	–	112 to 116	–
Cc1cc(-c2cc3n(C)c(=O)c4ccc(-c5cnn(C)c5)cc4n3n2)cc(C)n1.Cl [Example 122, 2-(2,6-Dimethyl-pyridin-4-yl)-4-methyl-8-(1-methyl-1H-pyrazol-4-yl)-4H-pyrazolo[1,5-a]quinazolin-5-one]	> 6.00	–	> 250	–
Cc1cc(-c2cc3n(C)c(=O)c4ccc(-c5c[nH]nc5C(F)(F)F)cc4n3n2)cc(C)n1.Cl [Example 147, 2-(2,6-Dimethyl-pyridin-4-yl)-4-methyl-8-(3-trifluoromethyl-1H-pyrazol-4-yl)-4H-pyrazolo[1,5-a]quinazolin-5-one]	> 6.00	–	> 250	–
Cc1cc(-c2ccc3c(=O)n(C)c4cc(-c5ccccc5)nn4c3c2)cc(C)n1.Cl [Example 37, 8-(2,6-Dimethyl-pyridin-4-yl)-4-methyl-2-phenyl-4H-pyrazolo[1,5-a]quinazolin-5-one]	> 6.00	–	> 250	–
Cc1cc(-c2cc3n(C)c(=O)c4ccc(-c5c[nH]nc5C)cc4n3n2)cc(C)n1.Cl [Example 121, 2-(2,6-Dimethyl-pyridin-4-yl)-4-methyl-8-(3-methyl-1H-pyrazol-4-yl)-4H-pyrazolo[1,5-a]quinazolin-5-one]	> 6.00	–	> 250	–
Cc1n[nH]cc1-c1ccc2c(=O)n(C)c3cc(C4CCCCC4)nn3c2c1 [Example 75, 2-Cyclohexyl-4-methyl-8-(3-methyl-1H-pyrazol-4-yl)-4H-pyrazolo[1,5-a]quinazolin-5-one]	> 6.00	–	> 250	–
Cc1cc(-c2ccc3c(=O)n(C)c4cc(C5CCCOC5)nn4c3c2)cc(C)n1.Cl (stereo not shown) [Example 108, 8-(2,6-Dimethyl-pyridin-4-yl)-4-methyl-2-(tetrahydro-pyran-3-yl)-4H-pyrazolo[1,5-a]quinazolin-5-one]	> 6.00	–	182 to 193	–
Cn1cc(-c2ccc3c(=O)n(C)c4cc(-c5cccnc5)nn4c3c2)cn1 [Example 85, 4-Methyl-8-(1-methyl-1H-pyrazol-4-yl)-2-pyridin-3-yl-4H-pyrazolo[1,5-a]quinazolin-5-one]	> 6.00	–	> 250	–
Cc1n[nH]cc1-c1ccc2c(=O)n(C)c3cc(-c4ccc(F)cc4)nn3c2c1 [Example 81, 2-(4-Fluoro-phenyl)-4-methyl-8-(3-methyl-1H-pyrazol-4-yl)-4H-pyrazolo[1,5-a]quinazolin-5-one]	> 6.00	–	> 250	–
Cc1nc(N)ccc1-c1ccc2c(=O)n(C)c3cc(-c4ccccc4)nn3c2c1.Cl [Example 25, 8-(6-Amino-2-methyl-pyridin-3-yl)-4-methyl-2-phenyl-4H-pyrazolo[1,5-a]quinazolin-5-one]	> 6.00	–	218 to 220	–
Cl.Cn1c(=O)c2ccc(-c3ccc(N)nn3)cc2n2nc(-c3ccccc3)cc12 [Example 29, 8-(6-Amino-pyridazin-3-yl)-4-methyl-2-phenyl-4H-pyrazolo[1,5-a]quinazolin-5-one]	> 6.00	–	> 250	–
Cl.Cn1cc(-c2cc3n(C)c(=O)c4ccc(-c5ccc(N)nc5)cc4n3n2)cn1 [Example 128, 8-(6-Amino-pyridin-3-yl)-4-methyl-2-(1-methyl-1H-pyrazol-4-yl)-4H-pyrazolo[1,5-a]quinazolin-5-one]	> 6.00	–	217 to 228	–
CN(C)S(=O)(=O)c1cccc(-c2ccc3c(=O)n(C)c4cc(-c5ccccc5)nn4c3c2)c1 [Example 38, N,N-Dimethyl-3-(4-methyl-5-oxo-2-phenyl-4,5-dihydro-pyrazolo[1,5-a]quinazolin-8-yl)-benzenesulfonamide]	> 6.00	–	202 to 204	> 7.52
Cl.Cn1c(=O)c2ccc(-c3ccc(N)nc3)cc2n2nc(C3CCCC3)cc12 [Example 65, 8-(6-Amino-pyridin-3-yl)-2-cyclopentyl-4-methyl-4H-pyrazolo[1,5-a]quinazolin-5-one]	> 6.00	–	> 250	–
CCCn1c(=O)c2ccc(-c3ccc(N)nc3)cc2n2nc(-c3ccccc3)cc12.Cl [Example 44, 8-(6-Amino-pyridin-3-yl)-2-phenyl-4-propyl-4H-pyrazolo[1,5-a]quinazolin-5-one]	> 6.00	–	> 250	–
